Key:
α-synuclein [1] = biological target: T1, α-synuclein (Homo sapiens, UniProt P37840); test: Thioflavin-T assay of α-synuclein aggregation kinetics; type: biochemical; details: 100 μM compound, FIG. 1A and 1B
Description: Lyophilized α-synuclein was dissolved in PBS (phosphate buffer solution) to a final solution of 210 μM and filtered through a Millipore 0.22 μm filter. α-synuclein aggregation was performed in a 96-well plate (non-treated, black plastic), each well containing a Teflon® polyball ⅛″ diameter (Polysciences Europe GmbH, Eppelheim, Germany), 40 μM Thioflavin-T (Th-T), 70 μM α-synuclein, 100 μM of the compounds to be tested and PBS up to a final volume of 150 μL. The plates were fixed into an orbital culture shaker Max-Q 4000 (Thermo Scientific, Waltham, Mass., USA) to keep the incubation at 37° C., 100 rpm. Every, 2 h, the fluorescence intensity was measured using a Victor 3.0 Multilabel Reader (PerkinElmer, Waltham, Mass., USA), by exciting the mixtures with 430-450 nm filter and collecting the emission intensity with 480-510 nm filter. Each measurement was performed in triplicates.
Each plate contained three (3) α-synuclein controls in the absence of any of the tested compounds. The averaged Th-T fluorescence obtained for these wells at the end of the experience was normalized to 1, and the kinetic curves in the different wells re-scaled accordingly. After compiling the fluorescence signals, means and standard error of mean (SEM) were used to fit the aggregation kinetic with equation (1),
wherein k^b and k^a indicate the homogeneous nucleation rate constant and the secondary rate constant, accounting for fibril elongation and secondary nucleation, respectively.
Re-scaled curves were used to compare the controls with the effect of the compounds and to ensure that the controls were reproducible between different experiments.

α-synuclein [2] = biological target: T1, α-synuclein; test: Light scattering of α-synuclein aggregates at end-point (48 h); type: biochemical; details: 48 h end-point; for Effect on aggregation measured by light scattering at 300 and 340 nm (in words): FIG. 2A and 2B; for Normalized light scattering value at 300 nm: normalised to control = 1, excitation 300 nm; for Normalized light scattering value at 340 nm: normalised to control = 1, excitation 340 nm
Description: Total aggregate formation at 48 h was measured by light scattering adding 80 μL of pre-aggregated α-synuclein into a quartz cuvette. Samples were previously re-suspended by carefully vortexing and pipetting, and then excited at 300 and 340 nm and 90° scattering collected between 280 to 360 nm. These measurements were performed in a Cary Eclipse Fluorescence Spectrophotometer (Agilent, Santa Clara, Calif., USA).

[3] = tested on: primary culture of dopaminergic neurons injured with a mitochondrial toxin (MPP+); test: Neuroprotection in primary culture of dopaminergic neurons injured with MPP+; type: cell-based, rat; details: compounds 10 nM to 10 μM, pre-incubated 1 or 4 hours, MPP+ 4 μM for 48 hours, FIG. 16-20
Description: The efficacy of 5 compounds was assessed in a primary culture of dopaminergic neurons injured with a mitochondrial toxin (MPP+), which is often used to experimentally mimic the pathology of Parkinson disease (FIG. 16 to 20).
To obtain rat dopaminergic neurons, pregnant female rats (Wistar, Janvier Labs, France) of 15 days of gestation were killed using a deep anesthesia in a CO2 chamber followed by a cervical dislocation. Midbrains obtained from 15-day-old rat embryos were dissected under microscope and placed in ice-cold medium of Leibovitz (L15) containing 2% of Penicillin-Streptomycin (PS) and 1% of bovine serum albumin (BSA). The ventral portion of the mesencephalic flexure, a region of the developing brain rich in dopaminergic neurons, was used for the cell preparations.
The midbrains were dissociated by trypsinization for 20 min at 37° C. (solution at a final concentration of 0.05% trypsin and 0.02% EDTA). The reaction was stopped by adding Dulbecco's modified Eagle's medium (DMEM) containing DNAase I grade II (0.5 mg/mL) and 10% of fetal calf serum (FCS). Cells were then mechanically dissociated by 3 passages through a 10 ml pipette. […] The supernatant was discarded and the cell pellet was re-suspended in a defined culture serum-free medium consisting of Neurobasal (Invitrogen) supplemented with B27 (2%), L-glutamine (2 mM) and 2% of PS solution and 10 ng/ml of Brain-derived neurotrophic factor (BDNF) and 1 ng/mL of Glial-Derived Neurotrophic Factor (GDNF). Viable cells were counted in a Neubauer cytometer using the trypan blue exclusion test.
Half of the medium was changed every 2 days with fresh medium. On 96-wells plates, only 60 wells were used, the first columns and first lines were not used to avoid any edge effect, the empty wells were filled with sterile water.
Test compounds were tested on culture in 96-well plates (n=6 culture wells per condition).
Vehicle: Culture medium (0.1% DMSO).
Pre-incubation: On day 6 of culture, the compounds (from 10 nM to 10 μM) were dissolved in DMSO and then in culture medium, and were pre-incubated with primary dopaminergic neurons for 1 hour or 4 hours before the application of MPP+.
Injury: One or four hours after the application of the test compounds, MPP+ was added to a final concentration of 4 μM, diluted in control medium still in presence of compounds for 48 hours.
48 hours after the intoxication, the cell culture supernatant was removed, and the cells were fixed by a solution of 4% paraformaldehyde in PBS, pH=7.3 for 20 min at room temperature. The cells were washed twice in PBS, and then permeabilized. Non-specific sites were blocked with a solution of PBS containing 0.1% saponin and 1% FCS for 15 min at room temperature.
Immunostaining: TH and α-syn
The cultures were incubated with: • A monoclonal anti-Tyrosine Hydroxylase (TH) antibody produced in mouse at dilution of 1/10000 in PBS containing 1% FCS, 0.1% saponin, for 2 hours at room temperature. • a polyclonal anti-alpha synuclein (α-syn) antibody produced in rabbit at dilution of 1/200 in PBS containing 1% FCS, 0.1% saponin, for 2 hours at room temperature.
For each condition, 20 (for the TH survival and α-syn readouts) pictures representing the whole well area, were automatically taken using ImageXpress® (Molecular Devices) at 10× magnification (20 pictures, for TH and α-syn into TH neurons) using the same acquisition parameters. From images, analyses were directly and automatically performed by Custom Module Editor® (Molecular Devices). The following read-outs were measured: • Analysis of total number of THneurons (TH positive neurons), • total length of neurite network of TH positive neurons (in μm), • α-syn aggregation (overlapping between TH and α-syn staining),
Results are expressed in percentage of control. All values show the mean+/−SEM (standard error of the mean) from 4-6 wells per condition.

Row | Structure (SMILES) | Inhibition of Th-T fluorescence / fibril formation (in words) (α-synuclein [1]) | Effect on aggregation measured by light scattering at 300 and 340 nm (in words) (α-synuclein [2]) | Normalized light scattering value at 300 nm (α-synuclein [2]) | Normalized light scattering value at 340 nm (α-synuclein [2]) | Loss of dopaminergic neurons (TH number) after MPP+ (in words) [3] | α-syn aggregation (ratio a-syn area/TH number) triggered by MPP+ (in words) [3]
1 | Nc1nc(=O)c2ncn([C@H]3C=C[C@@H](CO)C3)c2[nH]1 [(−)-Carbovir, 2-amino-9-[(1R,4S)-4-(hydroxymethyl)cyclopent-2-en-1-yl]-1H-purin-6-one] | more modest inhibition of fibril formation | reduced absorbance at both length waves | 0.72 ± 0.08 | 0.77 ± 0.09 |  | 
2 | Cn1ncc(Cl)c1-c1cc(C(=O)N[C@H](CN)Cc2cccc(F)c2)sc1Cl [Afuresertib, N-[(2S)-1-amino-3-(3-fluorophenyl)propan-2-yl]-5-chloro-4-(4-chloro-1-methyl-1H-pyrazol-5-yl)thiophene-2-carboxamide] | potent inhibitors | reduced absorbance at both length waves | 0.44 ± 0.08 | 0.62 ± 0.09 | partially prevented the loss of dopaminergic neurons | decreased α-syn aggregation
3 | O=C(c1ccccc1)N1CCN=C1Nc1c(Cl)cccc1Cl [Benclonidine, [2-(2,6-dichloroanilino)-4,5-dihydroimidazol-1-yl]-phenylmethanone] | potent inhibitors |  | 0.95 ± 0.07 | 0.98 ± 0.07 | partially prevented the loss of dopaminergic neurons | decreased α-syn aggregation
4 | C[C@@H](NCCCc1cccc(C(F)(F)F)c1)c1cccc2ccccc12 [Cinacalcet, N-[(1R)-1-(1-naphthyl)ethyl]-3-[3-(trifluoromethyl)phenyl]propan-1-amine] |  | significant reduction of the absorbance | 0.44 ± 0.17 | 0.48 ± 0.18 |  | 
5 | N=C(N)NCC1COC2(CCCCC2)O1 (centres unmarked) [Guanadrel, 2-(1,4-dioxaspiro[4.5]decan-2-ylmethyl)guanidine] | more modest inhibition of fibril formation | reduced absorbance at both length waves | 0.68 ± 0.06 | 0.68 ± 0.06 | partially prevented the loss of dopaminergic neurons | decreased α-syn aggregation
6 | N=C(N)NC(=O)Cc1c(Cl)cccc1Cl [Guanfacine, N-(diaminomethylidene)-2-(2,6-dichlorophenyl)acetamide] | more modest inhibition | significant reduction of the absorbance | 0.65 ± 0.10 | 0.68 ± 0.10 | partially prevented the loss of dopaminergic neurons | decreased α-syn aggregation
7 | CC(CCc1ccc2c(c1)OCO2)NCC(O)c1ccc(O)c(C(N)=O)c1 (centres unmarked) [Medroxalol, 5-[2-[[3-(1,3-Benzodioxol-5-yl)-1-methylpropyl]amino]-1-hydroxyethyl]-2-hydroxybenzamide] | more modest inhibition of fibril formation | reduced absorbance at both length waves | 0.72 ± 0.03 | 0.75 ± 0.04 |  | 
8 | CCCOc1ccc2[nH]c(NC(=O)OC)nc2c1 [Oxibendazole, Methyl N-(6-propoxy-1H-benzimidazol-2-yl) carbamate] |  | significant reduction of the absorbance | 0.13 ± 0.02 | 0.51 ± 0.10 |  | 
9 | N=C(NN=Cc1ccc(Cl)cc1)NN=Cc1ccc(Cl)cc1 [Robenidine, 1,2-bis[(4-chlorophenyl)methylideneamino]guanidine] |  | significant reduction of the absorbance | 0.31 ± 0.03 | 0.31 ± 0.02 |  | 
10 | Cc1ccnc(NS(=O)(=O)c2ccc(N)cc2)n1 [Sulfamerazine, 4-amino-N-(4-methylpyrimidin-2-yl)benzenesulfonamide] | potent inhibitors | reduced absorbance at both length waves | 0.55 ± 0.10 | 0.78 ± 0.14 |  | 

From patent publication US20230147129A1, “COMPOUNDS FOR USE IN THE TREATMENT OF SYNUCLEINOPATHIES” (SOM INNOVATION BIOTECH, S.A., priority 2020, published 2023)
